ChEMBL document CHEMBL6120946, “From Hit to Lead: Discovery of First-In-Class Furanone Glycoside D228 Derived from Chimonanthus salicifolius for the Treatment of Inflammatory Bowel Disease” (J Med Chem, 2024)
Activity calls are given as the source filed them. No cut-off for these calls is given here.

What was measured:
Mus musculus [1] = assay: Antiinflammatory activity in DSS-induced male C57BL/6 mouse model of inflammatory bowel disease assessed as recovery from body weight loss at 10 mg/kg/day, ip measured after 14 days relative to control; type: functional; conditions: time 14 day
Mus musculus [2] = assay: Antiinflammatory activity in DSS-induced male C57BL/6 mouse model of inflammatory bowel disease assessed as increase in colon length at 20 mg/kg/day, ip measured after 14 days relative to control; type: functional; conditions: time 14 day
Mus musculus [3] = assay: Antiinflammatory activity in DSS-induced male C57BL/6 mouse model of inflammatory bowel disease assessed as reduction of severe diarrhea at 15 to 60 mg/kg/day, po via gavage measured upto 14 days; type: functional, organism-based; conditions: dose 15-60 mg/kg/day, time <= 14.0 day
Mus musculus [4] = assay: Antiinflammatory activity in DSS-induced male C57BL/6 mouse model of inflammatory bowel disease assessed as increase in colon length at 15 mg/kg/day, po via gavage measured upto 14 days relative to control; type: functional; conditions: time <= 14 day
Mus musculus [5] = assay: Antiinflammatory activity in DSS-induced male C57BL/6 mouse model of inflammatory bowel disease assessed as downregulation of TRAF6 expression at 50 to 200 microM/Kg by Western blot analysis; type: functional, organism-based; conditions: dose 50-200 µM/Kg
Mus musculus [6] = assay: Antiinflammatory activity in DSS-induced male C57BL/6 mouse model of inflammatory bowel disease assessed as downregulation of MyD88 expression at 50 to 200 microM/Kg by Western blot analysis; type: functional, organism-based; conditions: dose 50-200 µM/Kg
Mus musculus [7] = assay: Antiinflammatory activity in DSS-induced male C57BL/6 mouse model assessed as increase in IL-10 level in colon at 50 to 200 microM/Kg; type: functional, organism-based; conditions: dose 50-200 µM/Kg
Mus musculus [8] = assay: Antiinflammatory activity in DSS-induced male C57BL/6 mouse model assessed as inhibition of TNF-alpha level in colon at 50 to 200 microM/Kg; type: functional, organism-based; conditions: dose 50-200 µM/Kg
Mus musculus [9] = assay: Antiinflammatory activity in DSS-induced male C57BL/6 mouse model assessed as inhibition of IL-6 level in colon at 50 to 200 microM/Kg; type: functional, organism-based; conditions: dose 50-200 µM/Kg
Mus musculus [10] = assay: Antiinflammatory activity in DSS-induced male C57BL/6 mouse model of inflammatory bowel disease assessed as amelioration of crypts disruption at 50 to 200 microM/Kg by H and E staining based analysis; type: functional, organism-based; conditions: dose 50-200 µM/Kg
Mus musculus [11] = assay: Antiinflammatory activity in DSS-induced male C57BL/6 mouse model of inflammatory bowel disease assessed as amelioration of infiltration of inflammatory cells at 50 to 200 microM/Kg by H and E staining based analysis; type: functional, organism-based; conditions: dose 50-200 µM/Kg
Mus musculus [12] = assay: Antiinflammatory activity in DSS-induced male C57BL/6 mouse model of inflammatory bowel disease assessed as upregulation of ZO-1 expression in colon at 50 to 200 microM/Kg by immunohistochemical analysis; type: functional, organism-based; conditions: dose 50-200 µM/Kg
Mus musculus [13] = organism: Mus musculus; assay: Antiinflammatory activity in DSS-induced male C57BL/6 mouse model of inflammatory bowel disease assessed as reduction in TLR4 level; type: functional, organism-based
Mus musculus [14] = organism: Mus musculus; assay: Antiinflammatory activity in DSS-induced male C57BL/6 mouse model of inflammatory bowel disease assessed as reduction in p38 level; type: functional, organism-based
Mus musculus [15] = assay: Antiinflammatory activity in DSS-induced male C57BL/6 mouse model of inflammatory bowel disease assessed as reduction in diarrhea at 22.5 to 45 mg/kg/day, po via gavage measured upto 14 days; type: functional, organism-based; conditions: dose 22.5-45 mg/kg/day, time <= 14.0 day
Mus musculus [16] = assay: Antiinflammatory activity in DSS-induced male C57BL/6 mouse model of inflammatory bowel disease assessed as increase in colon length at 45 mg/kg/day, po via gavage measured upto 14 days relative to control; type: functional; conditions: time <= 14 day
Mus musculus [17] = assay: Antiinflammatory activity in male C57BL/6 mouse model of inflammatory bowel disease assessed as recovery of DSS-induced body weight loss at 40 mg/kg/day, po via gavage measured after 14 days relative to control; type: functional; conditions: time 14 day
[18] = Acute toxicity in male Kunming mouse assessed as effect on body weight loss 5 g/Kg, po measured after 5 weeks; type: organism-based; conditions: in vivo, 5000 mg/kg, 840 h
[19] = Acute toxicity in male Kunming mouse assessed as effect on liver 5 g/Kg, po measured after 5 weeks; type: organism-based; conditions: in vivo, 5000 mg/kg, 840 h
[20] = Acute toxicity in male Kunming mouse assessed as effect on spleen 5 g/Kg, po measured after 5 weeks; type: organism-based; conditions: in vivo, 5000 mg/kg, 840 h
[21] = Acute toxicity in female Kunming mouse assessed as effect on liver 5 g/Kg, po measured after 5 weeks; type: organism-based; conditions: in vivo, 5000 mg/kg, 840 h
[22] = Acute toxicity in female Kunming mouse assessed as effect on kidney 5 g/Kg, po measured after 5 weeks; type: organism-based; conditions: in vivo, 5000 mg/kg, 840 h
[23] = Toxicity in male Kunming mouse assessed as effect on body weight loss at 100 to 500 mg/kg/day, po measured after 5 weeks; type: organism-based; conditions: in vivo, 840 h, dose 100-500 mg/kg/day
[24] = Toxicity in male Kunming mouse assessed as effect on heart to body weight ratio at 100 to 500 mg/kg/day, po measured after 5 weeks; type: organism-based; conditions: in vivo, 840 h, dose 100-500 mg/kg/day
[25] = Toxicity in male Kunming mouse assessed as effect on heart at 100 to 500 mg/kg/day, po measured after 5 weeks by H and E staining based analysis; type: organism-based; conditions: in vivo, 840 h, dose 100-500 mg/kg/day
[26] = Toxicity in male Kunming mouse assessed as effect on lung at 100 to 500 mg/kg/day, po measured after 5 weeks by H and E staining based analysis; type: organism-based; conditions: in vivo, 840 h, dose 100-500 mg/kg/day
[27] = Toxicity in male Kunming mouse assessed as effect on TP level in serum at 100 to 500 mg/kg/day, po measured after 5 weeks; type: organism-based; conditions: in vivo, 840 h, dose 100-500 mg/kg/day
[28] = Toxicity in male Kunming mouse assessed as effect on ALP level in serum at 100 to 500 mg/kg/day, po measured after 5 weeks; type: organism-based; conditions: in vivo, 840 h, dose 100-500 mg/kg/day
[29] = Toxicity in male Kunming mouse assessed as effect on T-CHO level in serum at 100 to 500 mg/kg/day, po measured after 5 weeks; type: organism-based; conditions: in vivo, 840 h, dose 100-500 mg/kg/day
[30] = Toxicity in male Kunming mouse assessed as effect on CK level in serum at 100 to 500 mg/kg/day, po measured after 5 weeks; type: organism-based; conditions: in vivo, 840 h, dose 100-500 mg/kg/day
[31] = Toxicity in male Kunming mouse assessed as effect on Na inorganic salt level in serum at 100 to 500 mg/kg/day, po measured after 5 weeks; type: organism-based; conditions: in vivo, 840 h, dose 100-500 mg/kg/day
[32] = Toxicity in female Kunming mouse assessed as effect on body weight loss at 100 to 500 mg/kg/day, po measured after 5 weeks; type: organism-based; conditions: in vivo, 840 h, dose 100-500 mg/kg/day

Structure (SMILES): CC(C)=C1OC(C)=C(O[C@@H]2O[C@H](CO)[C@@H](O)[C@H](O)[C@H]2O)C1=O
- Activity (Mus musculus [1]): 37.5%
- Activity (Mus musculus [2]): 47.4%
- Activity (Mus musculus [3]): Active
- Activity (Mus musculus [4]): 79.1%
- Activity (Mus musculus [5]): Active
- Activity (Mus musculus [6]): Active
- Activity (Mus musculus [7]): Active
- Activity (Mus musculus [8]): Active
- Activity (Mus musculus [9]): Active
- Activity (Mus musculus [10]): Active
- Activity (Mus musculus [11]): Active
- Activity (Mus musculus [12]): Active
- Activity (Mus musculus [13]): Active
- Activity (Mus musculus [14]): Active

Structure (SMILES): CC(=O)OC[C@H]1O[C@@H](OC2=C(C)OC(=C(C)C)C2=O)[C@H](OC(C)=O)[C@@H](OC(C)=O)[C@@H]1OC(C)=O
- Activity (Mus musculus [15]): Active
- Activity (Mus musculus [16]): 91.4%
- Activity (Mus musculus [17]): 49.1%
- Activity [18]: Non-toxic
- Activity [19]: Non-toxic
- Activity [20]: Non-toxic
- Activity [21]: Non-toxic
- Activity [22]: Non-toxic
- Activity [23]: Non-toxic
- Activity [24]: Non-toxic
- Activity [25]: Non-toxic
- Activity [26]: Non-toxic
- Activity [27]: Non-toxic
- Activity [28]: Non-toxic
- Activity [29]: Non-toxic
- Activity [30]: Non-toxic
- Activity [31]: Non-toxic
- Activity [32]: Non-toxic
